Measured values reported in paper PMC7756341, “Liposomal FRET Assay Identifies Potent Drug‐Like Inhibitors of the Ceramide Transport Protein (CERT)” (Chemistry (Weinheim an Der Bergstrasse, Germany), 2020).

Target: T1, CERT (Homo sapiens, UniProt Q9Y5P4)
T1 construct: made in house; host or cells: E. coli BL21 (DE3), pET-28a(+)
T1 sequence (Q9Y5P4 1-598 isoform Q9Y5P4-2): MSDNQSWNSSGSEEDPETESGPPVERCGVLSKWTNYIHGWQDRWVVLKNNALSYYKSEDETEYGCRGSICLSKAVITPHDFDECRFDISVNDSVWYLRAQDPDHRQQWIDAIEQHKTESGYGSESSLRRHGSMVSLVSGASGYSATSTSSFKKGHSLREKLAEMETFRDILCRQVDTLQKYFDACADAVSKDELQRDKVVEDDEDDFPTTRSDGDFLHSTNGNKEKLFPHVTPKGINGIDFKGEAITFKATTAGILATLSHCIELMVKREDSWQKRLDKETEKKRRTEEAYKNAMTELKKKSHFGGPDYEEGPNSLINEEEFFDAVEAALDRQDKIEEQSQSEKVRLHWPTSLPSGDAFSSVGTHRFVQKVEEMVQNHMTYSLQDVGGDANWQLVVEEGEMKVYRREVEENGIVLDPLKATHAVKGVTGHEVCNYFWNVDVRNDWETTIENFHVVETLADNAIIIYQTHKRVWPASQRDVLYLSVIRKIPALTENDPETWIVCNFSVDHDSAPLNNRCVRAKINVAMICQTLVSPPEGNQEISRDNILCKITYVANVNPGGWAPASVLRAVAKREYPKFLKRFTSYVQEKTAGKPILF
Test: NR-ceramide fluorescence competition assay
Assay type: binding
Conditions: 1 μM Nile red ceramide
Description: Having the identified hits from CERT-transfer assay, we were interested in further understanding the relationship between the CERT-transfer inhibitory activity and CERT-binding affinity. With this goal in mind, we have developed a homogenous competitive assay based on the binding of fluorescently-labeled ceramide to CERT-protein (Fig S6). It’s well known that Nile Red is […]
than in hydrophilic one. Based on this knowledge, we have designed a fluorescently-labeled probe in which the Nile Red-tag was incorporated into the ceramide fatty acid moiety. The NR-ceramide […]
excellent signal-to-noise ratio (28-fold, Fig S7.A). Equilibration takes ~1h of incubation at 30°C.
Furthermore, this assay is a simple mix-and read format and uses only low amounts of fluorophore (1µM) and CERT-protein (12.5µg/assay).
The assay was performed in non-binding black-bottom 96-well microplate (Greiner Bio-One). To each well was added 1µL HPA12 (final concentration 2.5µM) or DMSO, followed by 98 µL of the CERT aliquot (12.5µg/well). After the mixture was incubated for 40 min at 30°C, 1µL NR-ceramide (final concentration 1µM) was added. Controls were triplicates of 10mM Tris.HCl buffer (pH 7.4, 250 mM sucrose) with 2µL DMSO, CERT aliquot (12.5µg/well) with 2µL DMSO, and 1µL NR-ceramide (final concentration 1µM) in 10mM Tris.HCl buffer (pH 7.4, 250 mM sucrose) with 1µL DMSO. The plate was then sealed with transparent Thermowell seal tape and placed in the microplate reader (LABTECH) at 30°C with shaking. The fluorescence was measured from the top over 80min (number of cycles 35, delay 70 sec) with excitation filter 540 nm and emission filter 640 nm. The competitive CERT-binding activity was calculated using the formula: Ix = I(À2-Y)/I0(À1-X), where À1 is the average of the florescence of the control of NR-ceramide in Tris.HCl buffer, X is the average of the fluorescence of the buffer alone, À2 is the fluorescence average of the assay mixture, Y is the fluorescence average of the CERT aliquot with inhibitor/DMSO (Fig […]
It is however lower than the differentiation in the transfer assay (Fig S8B).
3.2 High throughput screening for CERT-activity and Data analysis
In order to validate the performance of developed assay in high-throughput screening format, the hits from ‘confirmed-hit group’ (45 hits) were screened for their competitive CERT-binding activity. The assay was performed as mentioned in the previous sub-section 3.1. Briefly, 1µL tested compound (final concentration 1µM, 2.5µM, 5µM, 10µM) or DMSO for control, and 98 µL CERT stock solution were sequentially added into a non-binding 96-well microplate. The plate was sealed and incubated at 30°C for 40 min, before 1µL NR-ceramide (final concentration 1µM) was added.
Controls per plate were triplicates of 10mM Tris.HCl buffer (pH 7.4, 250 mM sucrose) with 2µL DMSO, CERT aliquot (12.5µg/well) with 2µL DMSO, 1µL NR-ceramide (final concentration 1µM) in 10mM Tris.HCl buffer (pH 7.4, 250 mM sucrose), and HPA12 as a reference inhibitor (final concentration of 1µM, and 2.5µM, 5µM). The plate was sealed with transparent Thermowell seal tape and the assay was allowed to proceed as described above using excitation filter 540 nm and emission filter 640 nm. The competitive CERT-binding activity was calculated using the formula: Ix = I(À2-Y)/I0(À1-X), where À1 is the average of the florescence of the control 1µL NR-ceramide in Tris.HCl buffer, X is the average of the fluorescence of the buffer alone, À2 is the average of the fluorescence of assay mixture treated with tested compound or DMSO, Y is the average of the fluorescence of CERT aliquot with inhibitor/DMSO.

Row | Structure (SMILES) | activity in the NR ceramide competition assay
1 | CCCC(=O)OCOC(=O)C1=C(C)NC(C)=C(C(=O)OC)C1c1cccc(Cl)c1Cl (centres unmarked) [6B11, Clevidipine butyrate] | high activity
2 | O=C(NC1CCN(CCCCC2(C(=O)NCC(F)(F)F)c3ccccc3-c3ccccc32)CC1)c1ccccc1-c1ccc(C(F)(F)F)cc1 [8E8, lomitapide] | high activity
3 | CC1=NN(c2ccc(C)c(C)c2)C(=O)/C1=N\Nc1cccc(-c2cccc(C(=O)O)c2)c1O [17C9, Eltrombopag] | very strong competition
4 | Cc1cc(C2=NOC(c3cc(Cl)cc(Cl)c3)(C(F)(F)F)C2)ccc1C(=O)NCC(=O)NCC(F)(F)F (centres unmarked) [20D5, Fluralaner] | high activity
5 | CCCCCCCCCCCC(=O)NC(CO)CC(O)c1ccccc1 (centres unmarked) [HPA-12, N-(3Hydroxy-1-hydroxymethyl-3-phenylpropyl)-dodecamide] | reverted to approximately the initial value
